According to US5652105A, “Substrate for detection of mammalian 5-C-DNA methyltransferase” (Health Research, Inc., priority 1995, dated 1997):
[5mC] = 5-methylcytosine

Legend:
murine DNA 5-C-MTase [1] = assay: Methylation assay: methyl transfer from [methyl-3H]AdoMet to ODNs by DNA methyltransferase from Friend erythroleukemia cell nuclei; format: biochemical; conditions: for RELATIVE ACTIVITY (rate of methylation relative to an equal amount of AS): Table 6, single-stranded ODN; for rate of methylation relative to unmethylated A (times): ODNs with 5MeC in position 7 designed to form or not to form the stem-loop; for DNA METHYLASE (FL) SUBSTRATE ACTIVITY, ACTIVITY (CPM): Table 4, single and double stranded constructs, average of 2 expts, background 1813; for ACTIVITY (cpm), DNA methylase (FL): Table 5, S + M1 and its 5-fluorocytosine containing double stranded analogs
Experimental: The phosphoramidite of 5-fluorodeoxycytidine (5FdC) and unmodified 5-methyl deoxycytosine (5MdC) and 5FC-containing ODNs were synthesized and purified as described in Marasco, C. J. et al., J. Org. […] 5MdC phosphoramidite is commercially available. ss ODNs were heated to 90° C. for 10 min and quickly chilled on ice immediately prior to assay. […] For ds ODNs, an equimolar mixture of complementary ODNs was heated to 90° C. for 10 min and slowly cooled to room temperature.
Preparation of Murine DNA 5-C-MTase. The DNA 5-C-MTase used in these studies was the 100,000×g supernatant of a 0.3M NaCl extract of Friend erythroleukemia cell nuclei.
Methylation Assay. Reaction mixtures (50 μl ) in 0.1M imidazole, pH 7.4/20 mM EDTA/0.5 mM dithiothreitol contained 0.5 μg of each ODN indicated, ≈0.6 units of DNA 5-C-MTase (1 unit transfers 1 pmol to A (AS)·A'Mp (M1) per min; see Table 7), and 2.8 μCi (1 Ci=37 GBq) of [methyl-^3 H]AdoMet (AdoMet=S-adenosylmethionine) (8 μM). […] For accuracy, methylation rates <5 pmol/30 min were measured in quadrupled reaction mixtures (200 μl ). After incubation for 30 min at 37° C., ODNs were processed for quantitation of radiolabel as described (20) with 25 μg of salmon sperm DNA added as carrier prior to perchloric acid precipitation.
All assays were performed in duplicate.

[2] = system: bacterial SssI methyltransferase; assay: DNA methylase substrate activity with bacterial SssI enzyme preparation; format: biochemical; conditions: Table 3; bacterial SssI enzyme preparation; 0.25 μg oligomer; average of 2 expts; background 1351
From the text: They are labeled Sense (S), Antisense (AS), Methylated Antisense 1 (M1) and Methylated Antisense 2 (M2). […] This property of M2 provides an approach to accurately monitoring levels of DNA methyltransferase activity in clinically obtained tissue samples that might otherwise be contaminated by bacteria, since bacterial DNA methyltransferase activity would be excluded as a component of this measurement.
RESULTS ARE AVERAGE OF 2 EXPTS. BACTERIAL SSS1 ENZYME PREPARATION. ASSAYE

murine DNA 5-C-MTase [3] = assay: Methylation assay: methyl transfer from [methyl-3H]AdoMet to ODNs by DNA methyltransferase from Friend erythroleukemia cell nuclei; format: biochemical; conditions: Table 2; enzyme preparation from Friend leukemia cells; 1 μg oligomer; average of 2 expts; background 2691
[4] = molecular target: T1, DNA 5-C-methyltransferase (murine, Friend erythroleukemia cells) (Mus musculus, UniProt P13864 P13864:1-1620); assay: methylation rate; conditions: protein: extract; tags: 0.3 M NaCl nuclear extract, 100,000 x g supernatant; single approx. 190 kDa species forming covalent complexes
[5] = molecular target: T1, DNA 5-C-methyltransferase (murine, …); assay: methylation rate; conditions: protein: extract; tags: 0.3 M NaCl nuclear extract, 100,000 x g supernatant; single approx. 190 kDa species forming covalent complexes; remark: listed apart in the source
Experimental: (§1) Methylation Assay. Reaction mixtures (50 µl) in 0.1M imidazole, pH 7.4/20 mM EDTA/0.5 mM dithiothreitol contained 0.5 µg of each ODN indicated, ≈0.6 units of DNA 5-C-MTase (1 unit transfers 1 pmol to A (AS)·A'M_p (M1) per min; see Table 7), and 2.8 µCi (1 Ci=37 GBq) of [methyl-^3H]AdoMet (AdoMet=S-adenosylmethionine) (8 µM). Substrate C sites are in excess in the reaction, and methyl transfer is linear for >45 min. For accuracy, methylation rates <5 pmol/30 min were measured in quadrupled reaction mixtures (200 µl). After incubation for 30 min at 37° C., ODNs were processed for quantitation of radiolabel as described (20) with 25 µg of salmon sperm DNA added as carrier prior to perchloric acid precipitation.
(§2) Substitution of C residues with 5FC was used to determine which sites become substrates for enzymatic methylation in A strands containing 5MeC. It has been shown that both bacterial and mammalian DNA 5-C-MTases form stable covalent linkages with 5FC residues in DNA during the process of methylation. Under conditions of substrate excess, this leads to rapid inactivation of the enzymes. […] Thus, 5MeC in position 5 or 7 activates DNA 5-C-MTase to methylate C18 while failing to activate methylation of a C residue only two bases downstream.

[6] = molecular target: T1, DNA 5-C-methyltransferase (murine, …); assay: inhibition; methylation rate; 5FC in substrate site inactivates enzyme; conditions: protein: extract; tags: 0.3 M NaCl nuclear extract, 100,000 x g supernatant; single approx. 190 kDa species forming covalent complexes
Experimental: as §1, §2

[7] = Table 10, ss ODNs with 5 mC and 5 FC substitutions

T1 sequence (P13864 whole entry, one chain of several): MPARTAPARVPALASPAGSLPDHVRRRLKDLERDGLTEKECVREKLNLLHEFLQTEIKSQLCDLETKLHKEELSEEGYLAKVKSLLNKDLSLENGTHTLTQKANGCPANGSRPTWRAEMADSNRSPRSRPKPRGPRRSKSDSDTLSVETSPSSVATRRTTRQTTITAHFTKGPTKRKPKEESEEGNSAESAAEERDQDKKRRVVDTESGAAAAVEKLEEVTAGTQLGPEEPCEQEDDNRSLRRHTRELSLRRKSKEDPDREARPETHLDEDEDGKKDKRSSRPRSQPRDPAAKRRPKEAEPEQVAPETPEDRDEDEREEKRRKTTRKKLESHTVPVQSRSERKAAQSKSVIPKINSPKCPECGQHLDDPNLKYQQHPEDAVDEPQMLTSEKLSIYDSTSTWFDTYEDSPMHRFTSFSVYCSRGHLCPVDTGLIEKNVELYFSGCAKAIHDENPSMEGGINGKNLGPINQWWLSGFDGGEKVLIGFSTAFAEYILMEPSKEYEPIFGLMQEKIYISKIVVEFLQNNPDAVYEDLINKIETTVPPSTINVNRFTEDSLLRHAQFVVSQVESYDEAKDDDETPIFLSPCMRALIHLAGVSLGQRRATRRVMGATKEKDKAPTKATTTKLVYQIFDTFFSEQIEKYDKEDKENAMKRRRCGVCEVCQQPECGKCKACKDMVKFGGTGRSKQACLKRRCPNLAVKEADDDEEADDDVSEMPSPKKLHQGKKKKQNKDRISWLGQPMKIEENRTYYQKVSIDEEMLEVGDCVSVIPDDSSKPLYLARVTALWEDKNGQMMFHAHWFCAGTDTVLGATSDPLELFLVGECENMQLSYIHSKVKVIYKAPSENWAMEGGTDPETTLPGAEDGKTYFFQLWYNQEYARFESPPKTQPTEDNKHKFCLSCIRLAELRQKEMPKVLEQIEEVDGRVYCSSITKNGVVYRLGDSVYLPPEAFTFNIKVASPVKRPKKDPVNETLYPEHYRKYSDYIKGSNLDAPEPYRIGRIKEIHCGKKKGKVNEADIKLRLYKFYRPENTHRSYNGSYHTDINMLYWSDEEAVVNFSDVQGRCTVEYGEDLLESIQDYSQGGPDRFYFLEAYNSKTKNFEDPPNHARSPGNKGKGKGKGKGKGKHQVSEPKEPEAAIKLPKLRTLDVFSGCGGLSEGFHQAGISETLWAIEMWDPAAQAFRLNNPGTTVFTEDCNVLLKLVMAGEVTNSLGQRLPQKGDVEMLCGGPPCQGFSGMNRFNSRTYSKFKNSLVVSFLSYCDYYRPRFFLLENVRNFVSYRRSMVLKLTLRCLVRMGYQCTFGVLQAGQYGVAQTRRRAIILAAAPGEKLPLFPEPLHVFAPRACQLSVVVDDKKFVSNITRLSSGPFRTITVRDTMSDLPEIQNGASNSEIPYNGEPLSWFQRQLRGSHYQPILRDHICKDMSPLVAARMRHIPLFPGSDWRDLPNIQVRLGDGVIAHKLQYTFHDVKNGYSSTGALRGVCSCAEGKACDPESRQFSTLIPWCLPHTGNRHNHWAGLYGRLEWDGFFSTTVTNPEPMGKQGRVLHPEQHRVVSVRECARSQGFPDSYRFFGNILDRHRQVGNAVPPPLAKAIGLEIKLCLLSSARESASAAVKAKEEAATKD

Molecule: 5' ATTGCGNATTCCGGATCCGCGATC 3' (5-methylcytosine at 7, further chemistry not given here) [ASM7, ODN A (AS) with 5-methylcytosine (N) at position 7]
- RELATIVE ACTIVITY (rate of methylation relative to an equal amount of AS) (murine DNA 5-C-MTase [1]): 170
- Rate of methylation (murine DNA 5-C-MTase [1]; Table 7, phosphorothioate end capped oligomers, standard cell free enzyme assay): 72,010 cpm/μg oligo/30 min
- RATE (rate of methylation relative to A) (murine DNA 5-C-MTase [1]; Table 9, ss ODNs with 5MeC substituted for C at the sites given): 140
- RATE (rate of methylation relative to A) (murine DNA 5-C-MTase [1]; [7]): 130
- stimulation of the rate of methylation by phosphorothioate capping (murine DNA 5-C-MTase [1]; activity of D compared with C): more than 50%

Molecule: structure 8: ODN with 5MeC in position 7 that forms a homodimer but no stem-loop analogous to structures 5 and 6 (FIG. 9) (DNA ATTGCGCTACTCGGATCCGGCCAT; DNA, [5mC] at 7, backbone not given here)
- rate of methylation relative to unmethylated A (times) (murine DNA 5-C-MTase [1]): same rate as unmethylated A

Molecule: structure 6: ODN with 5MeC in position 7 that forms a stem-loop with the same relationship between C7 and C18 as A (FIG. 7, 8) (DNA ATGACGCACCTCGTTGACGCGCTA; DNA, [5mC] at 7, backbone not given here)
- rate of methylation relative to unmethylated A (times) (murine DNA 5-C-MTase [1]): > 300

Molecule: 3' TAACGCGTAAGGCCTAGGCGCTAG 5' (chemistry not given here; listed 3' to 5') [unmethylated sense single-stranded 24mer ODN]
- DNA METHYLASE SUBSTRATE ACTIVITY, ACTIVITY (CPM) [2]: 175225 CPM
- DNA METHYLASE (FL) SUBSTRATE ACTIVITY, ACTIVITY (CPM) (murine DNA 5-C-MTase [1]): 1598 CPM
- DNA METHYLASE SUBSTRATE ACTIVITY, ACTIVITY (CPM) (murine DNA 5-C-MTase [3]): 4843 CPM

Molecule: 5' GATCGCGGATNCGGAATGCGCAAT 3' (5-fluorocytosine, further chemistry not given here) [Seq. ID #12]
- ACTIVITY (cpm), DNA methylase (FL) (murine DNA 5-C-MTase [1]): 140,000 cpm

Molecule: 5' ATTGNGCATTCNGGATCNGNGATC 3' (5-methylcytosine at 5, 12, 18, 20, further chemistry not given here) [M1, AS with 5-methylcytosine (N) at 5, 12, 18, 20 (all CpG sites)]
- DNA METHYLASE SUBSTRATE ACTIVITY, ACTIVITY (CPM) [2]: 2339 CPM
- DNA METHYLASE (FL) SUBSTRATE ACTIVITY, ACTIVITY (CPM) (murine DNA 5-C-MTase [1]): 1373 CPM
- DNA METHYLASE SUBSTRATE ACTIVITY, ACTIVITY (CPM) (murine DNA 5-C-MTase [3]): 5487 CPM

Molecule: 5' GATCGCGGATCCGGAATGNGCAAT 3' (5-fluorocytosine, further chemistry not given here) [Seq. ID #14]
- ACTIVITY (cpm), DNA methylase (FL) (murine DNA 5-C-MTase [1]): 36,000 cpm

Molecule: 5' ATTGCGCATTCCGGATCCGCGATC 3' (chemistry not given here) [AS, unmethylated antisense single-stranded 24mer ODN]
- DNA METHYLASE SUBSTRATE ACTIVITY, ACTIVITY (CPM) [2]: 49282 CPM
- DNA METHYLASE (FL) SUBSTRATE ACTIVITY, ACTIVITY (CPM) (murine DNA 5-C-MTase [1]): 1936 CPM
- RELATIVE ACTIVITY (rate of methylation relative to an equal amount of AS) (murine DNA 5-C-MTase [1]): 1
- RATE (rate of methylation relative to A) (murine DNA 5-C-MTase [1]; [7]): 1
- DNA METHYLASE SUBSTRATE ACTIVITY, ACTIVITY (CPM) (murine DNA 5-C-MTase [3]): 12341 CPM

Molecule: 5' GATCGCGGATCNGGAATGCGCAAT 3' (5-fluorocytosine, further chemistry not given here) [Seq. ID #13]
- ACTIVITY (cpm), DNA methylase (FL) (murine DNA 5-C-MTase [1]): 28,000 cpm

Molecule: 5' ATTGCGNATTCCGGATCRGCGATC 3' (5-methylcytosine at 7, 5-fluorocytosine at 18, further chemistry not given here) [ASM7 F18, AS with 5-methylcytosine (N) at 7 and 5-fluorocytosine (R) at 18]
- inhibition of DNA methyltransferase (in words) (murine DNA 5-C-MTase [1]): potent
- RELATIVE ACTIVITY (rate of methylation relative to an equal amount of AS) (murine DNA 5-C-MTase [1]): 3
- RATE (rate of methylation relative to A) (murine DNA 5-C-MTase [1]; [7]): 3.2

Molecule: ATTGCGCATTCCGGATCCGCGATC (ssDNA, 5mC at 18) [ASM18]
- binding signal [4]: 12 relative to A

Molecule: GATCGCGGATCCGGAATGCGCAAT (ssDNA, 5mC at 6) [A' 5mC6]
- binding signal [4]: 42 relative to A

Molecule: GATCGCGGATCCGGAATGCGCAAT (ssDNA, 5mC at 11) [A' 5mC11]
- binding signal [4]: 1.7 relative to A

Molecule: ATTGCGCATTCCGGATCCGCGATC (ssDNA, 5mC at 7,11,17; 5-fluoro-C at 5 [5mC at 7,11,17; 5-fluoro-C at 5]) [AMx F5]
- binding signal [5]: 170 relative to A

Molecule: GATCGCGGATCCGGAATGCGCAAT (ssDNA, 5mC at 11,21) [M4 (SMx)]
- binding signal [4]: 75 relative to A

Molecule: ATTGCGCATTCCGGATCCGCGATC (ssDNA, 5mC at 20) [ASM20]
- binding signal [4]: 2.5 relative to A

Molecule: GATCGCGGATCCGGAATGCGCAAT (ssDNA, 5mC at 4) [A' 5mC4]
- binding signal [4]: 0.4 relative to A

Molecule: ATTGCGCATTCCGGATCCGCGATC (ssDNA, 5mC at 7,11,17; 5-fluoro-C at 18 [5mC at 7,11,17; 5-fluoro-C at 18]) [AMx F18]
- binding signal [6]: 2 relative to A

Molecule: ATTGCGCATTCCGGATCCGCGATC (ssDNA, 5mC at 17) [ASM17]
- binding signal [4]: 3.5 relative to A

Molecule: ATTGCGCATTCCGGATCCGCGATC (ssDNA, 5mC at 5; 5-fluoro-C at 20) [ASM5 F20]
- binding signal [5]: 152 relative to A

Molecule: ATTGCGCATTCCGGATCCGCGATC (ssDNA, 5mC at 7,11,17; 5-fluoro-C at 12 [5mC at 7,11,17; 5-fluoro-C at 12]) [AMx F12]
- binding signal [5]: 165 relative to A

Molecule: GATCGCGGATCCGGAATGCGCAAT (ssDNA, 5mC at 21) [A' 5mC21]
- binding signal [4]: 37 relative to A

Molecule: GATCGCGGATCCGGAATGCGCAAT (ssDNA, 5mC at 12) [A' 5mC12]
- binding signal [4]: 67 relative to A

Molecule: ATTGCGCATTCCGGATCCGCGATC (ssDNA, 5mC at 5; 5-fluoro-C at 18) [ASM5 F18]
- binding signal [6]: 1 relative to A

Molecule: ATTGCGCATTCCGGATCCGCGATC (ssDNA, 5mC at 7; 5-fluoro-C at 20 [5mC at 7; 5-fluoro-C at 20]) [ASM7 F20]
- binding signal [5]: 160 relative to A

Molecule: GATCGCGGATCCGGAATGCGCAAT (ssDNA, 5mC at 6,19) [A' 5mC6,19]
- binding signal [4]: 1 relative to A

Molecule: GATCGCGGATCCGGAATGCGCAAT (ssDNA, 5mC at 19) [A' 5mC19]
- binding signal [4]: 1 relative to A

Molecule: ATTGCGCATTCCGGATCCGCGATC (ssDNA, 5mC at 7,11,17; 5-fluoro-C at 20 [5mC at 7,11,17; 5-fluoro-C at 20]) [AMx F20]
- binding signal [5]: 168 relative to A
